According to patent US20240254156A1, “NOVEL ISOFLAVONE COMPOUND” (NABOCUL COSMETICS CO., LTD., priority 2021, published 2024):

How the values were obtained:
aquaporin 3 (AQP3) gene = assay: aquaporin 3 gene mRNA expression in HaCaT cells (QPCR); assay type: cell-based, human
Procedure: (§1) The Ceratonia siliqua C obtained in Example 2 was used to examine the effect of the Ceratonia siliqua C on the expression of aquaporin 3 (AQP3) gene and filaggrin 2 (FLG2) gene in a HaCaT cell, a human epidermis-derived keratinocyte cell line.
(§2) First, the HaCaT cells were cultured in a DMEM medium (containing 10% FBS, 100 U/mL penicillin and […] streptomycin) in the presence of 5% CO2 at 37° C. and saturated humidity. Next, the HaCaT cells adjusted to a cell concentration of 5×10^5 cells/mL were seeded in each well of a 6-well cell culture plate and cultured in a CO2 incubator (5% CO2, 37° C.) for 24 hours. Thereafter, the Ceratonia siliqua C isolated in Example 2 was added to each well to provide a final concentration different from each other. Specifically, the final concentrations of Ceratonia siliqua C in the HaCaT cell culture medium were 1 μM, 5 μM, 10 μM, 50 μM and 100 μM, respectively. A well without the Ceratonia siliqua C added was used as a control (0 μM). After addition, they were subjected to culture for 24 hours.
(§3) After completion of the culture, the HaCaT cells were collected from each well, and total RNA was extracted with an RNA extraction reagent (RNAzol®, a product available from Molecular Research Center, Inc.). […]

[1] = test system: IL-6 production in RAW264.7 cells; assay: LPS-induced IL-6 production in RAW264.7 cells (ELISA); assay type: cell-based, mouse; settings: 1, 5, 10, 50 and 100 μM, added 3 h before LPS 1 μg/mL, supernatant after 24 h, FIG. 11
Procedure: The Ceratonia siliqua C obtained in Example 2 was used to examine the effect of the Ceratonia siliqua C on the production of IL-6 that is an inflammatory cytokine.
In this test, an RAW264.7 cell, a mouse macrophage-derived cell line was used. RAW264.7 cells were cultured in a DMEM medium (containing 10% FBS, 100 U/mL penicillin and […] streptomycin) in the presence of 5% CO2 at 37° C. and saturated humidity.
Each well of a 96-well plate was seeded with 8×10^3 RAW264.7 cells, and the cells were cultured in a CO2 incubator for 24 hours. This was divided into a blank control group, a positive control group and a test group. A 100 μL portion of a DMEM medium was added to each well of the blank control group; a 100 μL portion of a solution of dexamethasone (DXM) dissolved in the DMEM medium was added to each well of the positive control group (a final concentration of dexamethasone: 20 μM); and a 100 μL portion of each of solutions obtained by appropriately diluting the Ceratonia siliqua C with the DMEM medium was added to each well of the test group to provide a different concentration from each other (final concentration: 1 μM, 5 μM, 10 μM, 50 μM and 100 μM). 3 hours later, LPS (1 μg/mL) was added to each well to induce inflammation. 24 hours later, the supernatant was collected and the IL-6 content in the supernatant was measured with an IL-6 quantitative ELISA kit. […]

filaggrin 2 (FLG2) gene = assay: filaggrin 2 gene mRNA expression in HaCaT cells (QPCR); assay type: cell-based, human
Procedure: as §1, §2, §3

[2] = 10 μM (highest expression promoting effect), 24 h, relative to control

## COc1ccc(-c2coc3c(OC)c(O)c(O[C@@H]4O[C@H](CO)[C@@H](O)[C@H](O)[C@H]4O)cc3c2=O)cc1 [Ceratonia siliqua C]
Aquaporin 3 (AQP3) gene; [2]
  increase of mRNA expression level of aquaporin 3: 2.5 times
Aquaporin 3 (AQP3) gene; 1-100 μM, 24 h culture, FIG. 12
  mRNA expression level of aquaporin 3 compared to the control: greatly increased the mRNA expression level
[1]
  production of IL-6 by LPS induction: inhibit the production of IL-6 in a concentration-dependent manner
Filaggrin 2 (FLG2) gene; [2]
  increase of mRNA expression level of filaggrin 2: 1.35 times
Filaggrin 2 (FLG2) gene; 1-100 μM, 24 h culture, FIG. 13
  mRNA expression level of filaggrin 2 compared to the control: greatly increased the mRNA expression level
